Data taken from patent US11180509B2, “Thiazolidone spiro pyrimidine trione compound, preparation method therefor and uses thereof” (SHANGHAI INSTITUTE OF MATERIA MEDICA, CHINESE ACADEMY OF …, priority 2017, dated 2021).
Converted amounts (≈) assume the structure as drawn. Read-outs that look alike come from different tables or passages of the source.

What was measured:
Streptococcus pyogenes = test: In vitro antibacterial activity, MIC by micro broth dilution; assay type: cell-based; conditions: read-out: MIC Spy
From the text: (§1) The following strains isolated in clinic were used in antibacterial activity screening in vitro: five strains of methicillin-resistant Staphylococcus aureus or MRSA, five strains of methicillin-sensitive Staphylococcus aureus or MSSA, five strains of methicillin-resistant Staphylococcus epidermidis or MRSE, five strains of methicillin-sensitive Staphylococcus epidermidis or MSSE, three strains of penicillin-resistant Streptococcus pneumoniae or PRSP, and three strains of Streptococcus pyogenes.
(§2) The above strains were clinically isolated pathogenic bacteria collected in Sichuan and Beijing in December 2015. They were identified by the collection unit via a VITEK-60 automatic microbiological identification instrument, and then re-identified by conventional methods in the laboratory. Before the experiment, each strain was purified by a single colony on an agar plate, and the cells freshly cultured at 37° C. overnight were appropriately diluted for the experiment. Quality control strain was Staphylococcus aureus ATCC25923 purchased from the Clinical Testing Center of the Ministry of Health of the People's Republic of China.
(§3) Medium: MH (Mueller-Hinton, hydrolyzed casein) broth (OXOID);
(§4) Culture condition: Incubate at 35-37° C. for 16-18 h.
(§5) The MIC value of each test sample for the tested strain was determined by micro broth dilution method recommended by Performance Standards for Antimicrobial Susceptibility Testing (Twenty-Third Informational Supplement; M02-A11, M07-A9 and M11-A8, 2013) of American Clinical and Laboratory Standards Institute (CLSI).
(§6) After diluting each test sample to different concentrations in MH broth, 100 μl of each sample solution at different concentrations was pipetted into a sterilized 96-well polystyrene plate. In the first to twelfth wells, the drug solution was added, and the final drug concentrations in each well were 64, 32, 16, 8, 4, 2, 1, 0.5, 0.25, 0.125, 0.06, and 0.03 mg/L. The well without drug and without bacteria was set as blank control well. The well with bacteria and without drug was set as a bacterial growth control well.
(§7) The test bacterial solution was adjusted with physiological saline to a bacterial suspension equivalent to 0.5 Maisson turbidity standard, and diluted 1:100 with MH broth. The drug solution was added so that the final concentration of the bacterial solution was about 10^4 CFU/ml; then 100 μl of bacterial solution was pipetted into the above wells (the total volume in each well was 200 μl). The plate was sealed and placed in a 35-37° C. incubator for 18-20 h, and then the results were determined. […] When Streptococcus pneumoniae was tested, sterile defibrillated sheep blood was added into the Colombian broth culture medium at a final concentration of 5% and cultivation was conducted in a 5% CO2 and 35-37° C. incubator for 18-20 hours.

[1] = test system: methicillin-sensitive Staphylococcus epidermidis or MSSE; test: as above; assay type: cell-based; conditions: read-out: MIC MSSE
From the text: as §1, §2, §3, §4, §5, §6, §7

[2] = test system: penicillin-resistant Streptococcus pneumoniae or PRSP; test: as above; assay type: cell-based; conditions: read-out: MIC PRSP
From the text: as §1, §2, §3, §4, §5, §6, §7

[3] = test system: methicillin-resistant Staphylococcus aureus or MRSA; test: as above; assay type: cell-based; conditions: read-out: MIC MRSA
From the text: as §1, §2, §3, §4, §5, §6, §7

[4] = test system: methicillin-resistant Staphylococcus epidermidis or MRSE; test: as above; assay type: cell-based; conditions: read-out: MIC MRSE
From the text: as §1, §2, §3, §4, §5, §6, §7

[5] = test system: methicillin-sensitive Staphylococcus aureus or MSSA; test: as above; assay type: cell-based; conditions: read-out: MIC MSSA
From the text: as §1, §2, §3, §4, §5, §6, §7

[6] = In vivo pharmacokinetics test in mice (oral); parameters: species or system CD-1 mice; conditions: PO 10.0 mg/kg; for AUC0→t / Cmax / MRT / t1/2 / Tmax: plasma; for Tmax: female, CD-1, mouse, read-out: Tmax
Procedure: Healthy female CD-1 mice were randomly divided into five groups and each group comprised three mice. The tested compound was administered orally.
0.030 mL of blood was taken from the orbit of each animal each time and anticoagulated with EDTAK2. The collection time was as follows. PO group: 15 m, 30 mi, 1 h, 2 h, 4 h, 6 h, 8 h, and 24 h after administration of the test compound. The collected blood samples were placed on ice and centrifuged within 30 minutes to separate the plasma (centrifugation conditions: 5000 rpm, 10 minutes, room temperature). The samples were stored at −80° C. before analysis.

[7] = 3 clinical strains, range over strains

Structure (SMILES)	MIC (Streptococcus pyogenes; [7]) [µg/mL]	MIC ([1]; 5 clinical strains, range over strains) [µg/mL]	MIC [2, 7] [µg/mL]	MIC (Streptococcus pyogenes) [µg/mL]	MIC [3] [µg/mL]	MIC [4] [µg/mL]	MIC [5] [µg/mL]	MIC [1] [µg/mL]	MIC [2] [µg/mL]	AUC0→t relative to AZD0914 ([6]; multiple of the AZD0914 value) [times)]	Cmax relative to AZD0914 ([6]; multiple of the AZD0914 value) [times)]	AUC0→t [6] [ng·h/mL]	Cmax [6] [ng/mL]	MRT [6] [h]	t1/2 [6] [h]	Tmax [6] [h]
C[C@H]1COc2c(N3CCN(C)CC3)c(F)cc3c(=O)c(C(=O)O)cn1c23 [levofloxacin, reference compound]	0.5 to 1 (≈ 1.38 to 2.77 µM)	0.5 to 4 (≈ 1.38 to 11.1 µM)	1 (≈ 2.77 µM)	–	–	–	–	–	–	–	–	–	–	–	–	–
COC[C@H]1CN(c2noc3c(F)c4c(cc23)CC2(C(=O)NC(=O)NC2=O)[C@H]2[C@H](C)O[C@H](C)CN42)C(=O)S1 [Compound 8, (2R,4S,4aS)-11-fluoro-8-((R)-5-(methoxymethyl)-2-oxothiazolin-3-yl)-2,4-dimethyl-1,2,4,4a-tetrahydro-2′H,6H-spiro[isoxazole[4,5-g][1,4]oxazine[4,3-a]quinoline-5,5′-pyrimidine]-2′,4′,6′(1′H,3′H)-trione]	–	–	–	0.25 to 0.5 (≈ 0.469 to 0.937 µM)	0.03 to 0.5 (≈ 0.0562 to 0.937 µM)	0.03 (≈ 0.0562 µM)	0.03 to 0.25 (≈ 0.0562 to 0.469 µM)	0.03 to 0.125 (≈ 0.0562 to 0.234 µM)	0.03 to 0.5 (≈ 0.0562 to 0.937 µM)	~11	~11	8240 ± 940	2051 ± 88	3.72 ± 0.76	2.51 ± 0.08	0.583 ± 0.382
C[C@@H]1CN2c3c(cc4c(N5C(=O)SC[C@@H]5C)noc4c3F)CC3(C(=O)NC(=O)NC3=O)[C@H]2[C@H](C)O1 [Compound 5, (2R,4S,4aS)-11-fluoro-2,4-dimethyl-8-((S)-4-methyl-2-oxothiazolin-3-yl)-1,2,4,4a-tetrahydro-2′H,6H-spiro[isoxazole[4,5-g][1,4]oxazine[4,3-a]quinoline-5,5′-pyrimidine]-2′,4′,6′(1′H,3′H)-trione]	–	–	–	0.125 to 0.25 (≈ 0.248 to 0.497 µM)	0.03 to 0.25 (≈ 0.0596 to 0.497 µM)	0.06 to 0.25 (≈ 0.119 to 0.497 µM)	0.25 to 0.5 (≈ 0.497 to 0.993 µM)	0.03 to 0.125 (≈ 0.0596 to 0.248 µM)	0.125 to 1 (≈ 0.248 to 1.99 µM)	–	–	–	–	–	–	–
C[C@@H]1CN2c3c(cc4c(N5C[C@@H](C)SC5=O)noc4c3F)CC3(C(=O)NC(=O)NC3=O)[C@H]2[C@H](C)O1 [Compound 3, (2R,4S,4aS)-11-fluoro-2,4-dimethyl-8-((R)-5-methyl-2-oxothiazolin-3-yl)-1,2,4,4a-tetrahydro-2′H,6H-spiro[isoxazole[4,5-g][1,4]oxazine[4,3-a]quinoline-5,5′-pyrimidine]-2′,4′,6′(1′H,3′H)-trione]	–	–	–	< 0.03	0.03 to 0.25 (≈ 0.0596 to 0.497 µM)	0.03 to 0.06 (≈ 0.0596 to 0.119 µM)	0.03 to 0.125 (≈ 0.0596 to 0.248 µM)	0.03 to 0.06 (≈ 0.0596 to 0.119 µM)	0.03 (≈ 0.0596 µM)	–	–	12034 ± 2835	2188 ± 223	4.85 ± 0.99	2.70 ± 0.143	0.583 ± 0.382
C[C@@H]1CN2c3c(cc4c(N5C[C@H](CN=[N+]=[N-])SC5=O)noc4c3F)CC3(C(=O)NC(=O)NC3=O)[C@H]2[C@H](C)O1 [Compound 10, (2R,4S,4aS)-8-((R)-5-(azidomethyl)-2-oxothiazol-3-yl)-11-fluoro-2,4-dimethyl-1,2,4,4a-tetrahydro-2′H,6H-spiro[isoxazole[4,5-g][1,4]oxazine[4,3-a]quinoline-5,5′-pyrimidine]-2′,4′,6′(1′H,3′H)-trione]	–	–	–	0.125 to 1 (≈ 0.23 to 1.84 µM)	0.25 to 0.5 (≈ 0.459 to 0.918 µM)	0.03 to 0.125 (≈ 0.0551 to 0.23 µM)	0.06 to 0.25 (≈ 0.11 to 0.459 µM)	0.03 to 0.25 (≈ 0.0551 to 0.459 µM)	0.125 (≈ 0.23 µM)	–	–	–	–	–	–	–
